In patent publication US7776566B2, “Method for producing purine nucleoside by fermentation” (priority 1997, dated 2010):

What was measured:
Format in all cases: biochemical, E. coli
[1] = molecular target: T1, PRPP synthetase (Prs) D128A (Escherichia coli, UniProt P0A717, D129A); assay: PRPP synthetase activity of crude enzyme extracts and inhibition by ADP (mutant prsDA); conditions: mutant type
T1 construct: made in house; host or cells: E. coli JM109 (crude enzyme extract)
Description: A prs fragment was excised from the plasmid carrying the prs of about 1 kb cloned in Section 1) by SalI and SphI digestion, and inserted between the SalI and SphI sites of the multi-cloning site of a plasmid for introducing mutation, pKF19k (Takara Shuzo) to obtain the target clone (pKFprs). […] It is also described that the enzyme whose Asp (D) at position 128 is mutated to Ala (A) is partially desensitized. Therefore, the following synthetic DNA primer was prepared for gene substitution realizing mutation of Asp (D) at position 128 PRPP synthetase (Prs) to Ala (A), and pKFprs was subjected to site-directed mutagenesis according to the protocol of Site-directed Mutagenesis System Mutan-Super Express Km (Takara Shuzo) to introduce a site-directed mutation into the pKFprs. […]
Recombinant bacteria obtained by transforming E. coli JM109 cells with the above four plasmids were cultured in LB liquid medium for eight hours, and collected, and crude enzyme extracts were prepared from them. The PRPP synthetase activity of the extracts and degrees of inhibition by ADP were measured according to the method of K. F. Jensen et al. (Analytical Biochemistry, 98, 254-263 (1979)) which was partially modified. Specifically, [a-^32P]ATP was used as the substrate and [^32P]AMP produced by the reaction was measured.

[2] = molecular target: T2, PRPP amidotransferase (PurF), wild type (Escherichia coli, UniProt P0AG16); assay: PRPP amidotransferase activity of crude enzyme extracts and inhibition by AMP and GMP (wild type purF, pKFpurF); conditions: JM109/pKFpurF crude extract, activity with None 0.68
T2 construct: made in house; host or cells: E. coli JM109 (crude enzyme extract)
Description: (§1) Recombinant bacteria obtained by transforming E. coli JM109 cells with the above plasmids were cultured in LB liquid medium for eight hours, and collected, and crude enzyme extracts were prepared from them. The PRPP amidotransferase activity of the extracts and degrees of inhibition by AMP and GMP were measured according to the method of L. J. Messenger (J. Biol. Chem., 254, 3382 (1979)).

[3] = molecular target: T3, PRPP amidotransferase (PurF) K326Q + P410W (Escherichia coli, UniProt P0AG16, K327Q/P411W); assay: PRPP amidotransferase activity of crude enzyme extracts and inhibition by AMP and GMP (mutant purF, pKFpurFKQPW); conditions: JM109/pKFpurFKQPW crude extract, activity with None 0.18
T3 construct: made in house; host or cells: E. coli JM109 (crude enzyme extract)
Description: (§2) A purF fragment was excised from the plasmid carrying the purF of about 1530 bp cloned into pCRTMII vector (Invitrogen) in Section 1) by digestion with PstI and HindIII, and inserted between the PstI and HindIII sites of the multi-cloning site of a plasmid for introducing mutation, pKF18 (Takara Shuzo) to obtain the target clone (pKFpurF). […] Therefore, the following synthetic DNA primers were prepared for gene substitution realizing mutations of Lys (K) at position 326 and Pro (P) at position 410 of PRPP amidotransferase (PurF) to Gln (Q) and Trp (W), respectively, and pKFpurF was subjected to site-directed mutagenesis according to the protocol of Site-directed Mutagenesis System Mutan-Super Express Km (Takara Shuzo) to introduce a site-directed mutation into the pKFpurF.
(§3) After the mutagenesis, 6 clones were randomly picked up from each of the resulting transformants, and plasmids were prepared from them. […]
as §1

[4] = molecular target: T4, PRPP amidotransferase (PurF) K326Q (Escherichia coli, UniProt P0AG16, K327Q); assay: PRPP amidotransferase activity of crude enzyme extracts and inhibition by AMP and GMP (mutant purF, pKFpurFKQ); conditions: JM109/pKFpurFKQ crude extract, activity with None 0.34
T4 construct: made in house; host or cells: E. coli JM109 (crude enzyme extract)
Description: as §2, §3, §1

T4 sequence (P0AG16 2-505 K327Q): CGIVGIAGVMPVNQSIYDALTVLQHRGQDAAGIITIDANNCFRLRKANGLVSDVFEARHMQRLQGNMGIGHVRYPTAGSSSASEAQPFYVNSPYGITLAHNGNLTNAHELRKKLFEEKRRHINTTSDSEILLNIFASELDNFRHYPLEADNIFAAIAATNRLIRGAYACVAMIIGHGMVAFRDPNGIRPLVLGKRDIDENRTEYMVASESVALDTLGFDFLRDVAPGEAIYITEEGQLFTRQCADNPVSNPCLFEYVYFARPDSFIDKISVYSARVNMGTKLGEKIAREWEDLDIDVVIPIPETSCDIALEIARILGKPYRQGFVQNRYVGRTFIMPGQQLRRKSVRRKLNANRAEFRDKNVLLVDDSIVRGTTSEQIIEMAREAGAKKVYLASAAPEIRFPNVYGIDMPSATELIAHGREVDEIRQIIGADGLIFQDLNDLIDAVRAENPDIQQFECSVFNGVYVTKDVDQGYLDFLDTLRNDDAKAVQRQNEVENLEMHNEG
T3 sequence (P0AG16 2-505 K327Q/P411W): as the sequence (P0AG16 2-505 K327Q) above, with P410W counted along it
T2 sequence (P0AG16 2-505): as the sequence (P0AG16 2-505 K327Q) above, with Q326K counted along it

Compound: Nc1ncnc2c1ncn2[C@@H]1O[C@H](COP(=O)(O)OP(=O)(O)O)[C@@H](O)[C@H]1O [ADP, adenosine diphosphate]
- PRPP synthetase (Prs) specific activity, 5 mM ADP ([1]; JM109/pSTVprsDA, medium copy, activity with None 10.6): 2.7 nmole/min/mg crude enzyme extract
- PRPP synthetase (Prs) specific activity, 5 mM ADP ([1]; JM109/pUCprsDA, high copy, activity with None 80.8): 20.2 nmole/min/mg crude enzyme extract

Compound: Nc1ncnc2c1ncn2[C@@H]1O[C@H](COP(=O)(O)O)[C@@H](O)[C@H]1O [AMP, adenosine monophosphate]
- PRPP amidotransferase activity, 10 mM AMP ([2]; 10 mM AMP): 0.48 µmol/min/mg
- PRPP amidotransferase activity, 10 mM AMP ([3]; 10 mM AMP): 0.16 µmol/min/mg
- PRPP amidotransferase activity, 10 mM AMP ([4]; 10 mM AMP): 0.32 µmol/min/mg

Compound: Nc1nc2c(ncn2[C@@H]2O[C@H](COP(=O)(O)O)[C@@H](O)[C@H]2O)c(=O)[nH]1 [GMP, guanosine monophosphate]
- PRPP amidotransferase activity, 10 mM GMP ([2]; 10 mM GMP): 0.10 µmol/min/mg
- PRPP amidotransferase activity, 10 mM GMP ([3]; 10 mM GMP): 0.17 µmol/min/mg
- PRPP amidotransferase activity, 10 mM GMP ([4]; 10 mM GMP): 0.33 µmol/min/mg
